According to patent US9890185B2, “Urea derivatives useful as kinase inhibitors” (Respivert Limited, priority 2013, dated 2018):
pIC50: −log10 of the molar value.

Experiments:
PBMCs [1] = assay: LPS-induced IL-8 release in PBMC cells (assay b); type: cell-based, human; conditions: Homo sapiens, PBMC; LPS-stimulated PBMCs; read-out: IC50 Values for Inhibition of Cytokine Release, PBMCs IL-8
Procedure, shortened: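 Human PBMCs from healthy donors, isolated by density gradient, were pretreated with compound for 2 h and then stimulated with 1 ng/mL LPS (E. coli 0111:B4) for 24 h at 37° C, 5% CO2. Supernatant IL-8 and TNFα were measured by sandwich ELISA, and IC50 was taken from the dose-response curve.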

HT29 cells = assay: IL-1β-induced IL-8 release in HT29 cells (assay d); type: cell-based; conditions: Homo sapiens, HT-29; IL-1β-stimulated HT29 cells; read-out: IC50 Values for Inhibition of Cytokine Release, HT29 cells IL-8
Description: HT29 cells, a human colon adenocarcinoma cell line, are plated in a 96 well plate (24 hrs) and pre-treated with compounds at the desired concentration for 2 hours before addition of 5 ng/mL of IL-1β (Abcam) for 24 hours. Supernatants are harvested for IL-8 quantification by Sandwich ELISA (Duo-set, R&D System). The IC50 is determined from the dose response curve.

PBMCs [2] = assay: Cell mitosis assay in PBMCs (assay g); type: cell-based; conditions: Homo sapiens, PBMC, test compound 5 μg/mL
Procedure, shortened: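 Human PBMCs from healthy donors, stimulated with 2% PHA for 48 hr, then exposed to test compounds for 20 hr, with demecolcine (0.1 μg/mL) added 2 hr before harvest. Cells fixed/permeabilised, stained for phospho-histone 3 and propidium iodide, and read by flow cytometry gated on lymphocytes. % mitosis inhibition vs 0.5% DMSO vehicle.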

TNBS-induced colitis = TNBS-induced colitis in mice (in vivo assay iv); parameters: species or system BDF1 mice; TNBS Ulcer grade / TNBS LP inflammation: scale not given here; conditions: SMEDDS vehicle
Description: Non-fasted, 10-12 week old, male BDF1 mice are dosed by oral gavage twice daily with either vehicle (5 mL/kg), reference item (Budesonide 2.5 mg/kg) or test compound (1 or 5 mg/kg) one day before (Day −1) stimulation of the inflammatory response by treatment with 2,4,6-trinitrobenzenesulphonic acid (TNBS) (15 mg/mL in 50% ethanol/50% saline). On Day 0 of the study TNBS (200 μL) is administered intra-colonically via a plastic catheter with BID dosing of the vehicle, reference or test compound continuing for 2 or 4 days. During the study animals are weighed every day and stool observations are made and recorded as a score, based on stool consistency. At the time of sacrifice on Day 2 (or Day 4) the large intestine is removed and the length and weight recorded. Sections of the colon are taken for histopathology scoring to determine disease severity.

[3] = mice, 5 mg/kg orally, conducted over 2 days, histopathology

| SMILES | pIC50 (PBMCs [1]) | pIC50 (HT29 cells) | inhibition at 5 µg/mL (PBMCs [2]) | Activity in in vivo model of colonic inflammation (histopathology analysis) (TNBS-induced colitis; TNBS colitis over 2 days) | Inflammatory cell infiltrate in the reticular and laminar propria zone (TNBS-induced colitis; TNBS colitis over 2 days) | TNBS LP inflammation (TNBS-induced colitis; [3]) | TNBS Ulcer grade (TNBS-induced colitis; [3]) |
| --- | --- | --- | --- | --- | --- | --- | --- |
| COCCOCCOCCOc1cc(Nc2cc(Oc3ccc(NC(=O)Nc4cc(C(C)(C)C)cc(CS(C)(=O)=O)c4OC)c4ccccc34)ccn2)cc(OC)c1 [15(a), 1-(5-(tert-butyl)-2-methoxy-3-((methylsulfonyl)methyl)phenyl)-3-(4-((2-((3-methoxy-5-(2-(2-(2-methoxyethoxy)ethoxy)ethoxy)phenyl)amino)pyridin-4-yl)oxy)naphthalen-1-yl)urea] | 8.44 | 8.38 | 56.8% | – | – | – | – |
| COc1c(CC(N)=O)cc(C(C)(C)C)cc1NC(=O)Nc1ccc(Oc2ccnc(Nc3cc(C)cc(C)c3)c2)c2ccccc12 [38(f), 2-(5-(tert-Butyl)-3-(3-(4-((2-((3,5-dimethylphenyl)amino)pyridin-4-yl)oxy)naphthalen-1-yl)ureido)-2-methoxyphenyl)acetamide] | 8.26 | 8.32 | 37.8% | – | – | – | – |
| COCCOCCOCCOc1cc(Nc2cc(Oc3ccc(NC(=O)Nc4cc(C(C)(C)C)cc(P(C)(C)=O)c4OC)c4ccccc34)ccn2)cc(OC)c1 [Example 2, 1-(5-(tert-Butyl)-3-(dimethylphosphoryl)-2-methoxyphenyl)-3-(4-((2-((3-methoxy-5-(2-(2-(2-methoxyethoxy)ethoxy)ethoxy)phenyl)amino)pyridin-4-yl)oxy)naphthalen-1-yl)urea] | 9.00 | 8.77 | 58.9% | – | – | – | – |
| C#Cc1cc(Nc2cc(Oc3ccc(NC(=O)Nc4cc(C(C)(C)C)cc(P(C)(C)=O)c4OC)c4ccccc34)ccn2)cc(C(=O)NCCOCCOCCOC)c1 [Example 3, 3-((4-((4-(3-(5-(tert-Butyl)-3-(dimethylphosphoryl)-2-methoxyphenyl)ureido)naphthalen-1-yl)oxy)pyridin-2-yl)amino)-5-ethynyl-N-(2-(2-(2-methoxyethoxy)ethoxy)ethyl)benzamide] | 8.55 | 7.84 | 29.4% | – | – | – | – |
| COCCOCCOCCOc1cc(Nc2nccc(Oc3ccc(NC(=O)Nc4cc(C(C)(C)C)cc(OCP(C)(C)=O)c4OC)c4ccccc34)n2)cc(OC)c1 [Example 6, 1-(5-(tert-Butyl)-3-((dimethylphosphoryl)methoxy)-2-methoxyphenyl)-3-(4-((2-((3-methoxy-5-(2-(2-(2-methoxyethoxy)ethoxy)ethoxy)phenyl)amino)pyrimidin-4-yl)oxy)naphthalen-1-yl)urea] | 8.72 | 8.28 | 52.4% | – | – | – | – |
| COCCOCCOCCOc1cc(Nc2cc(Oc3ccc(NC(=O)Nc4cc(C(C)(C)C)cc(P(C)(C)=O)c4)c4ccccc34)ccn2)cc(OC)c1 [Example 10, 1-(3-(tert-Butyl)-5-(dimethylphosphoryl)phenyl)-3-(4-((2-((3-methoxy-5-(2-(2-(2-methoxy-ethoxy)ethoxy)ethoxy)phenyl)amino)pyridin-4-yl)oxy)naphthalen-1-yl)urea] | 8.70 | 8.09 | 39.3% | – | – | – | – |
| COc1c(NC(=O)Nc2ccc(Oc3ccnc(Nc4ccccc4)c3)c3ccccc23)cc(C(C)(C)C)cc1P(C)(C)=O [Example 11, 1-(5-(tert-Butyl)-3-(dimethylphosphoryl)-2-methoxyphenyl)-3-(4-((2-(phenylamino)pyridin-4-yl)oxy)naphthalen-1-yl)urea] | 8.64 | 7.80 | 61% | – | – | – | – |
| COc1c(NC(=O)Nc2ccc(Oc3ccnc(Nc4ccccc4)c3)c3ccccc23)cc(C(C)(C)C)cc1C(=O)NCCN1CCOCC1 [Example 14, 5-(tert-Butyl)-2-methoxy-N-(2-morpholinoethyl)-3-(3-(4-((2-(phenylamino)pyridin-4-yl)oxy)naphthalen-1-yl)ureido)benzamide] | 8.48 | – | 51.9% | significant activity | marked reductions | 3.6 ± 0.2 | 3.5 ± 0.5 |
| COCCOCCOCCOc1cc(Nc2cc(Oc3ccc(NC(=O)Nc4cc(C(C)(C)C)cc(C(=O)NCCN5CCOCC5)c4OC)c4ccccc34)ccn2)cc(OC)c1 [Example 16, 5-(tert-Butyl)-2-methoxy-3-(3-(4-((2-((3-methoxy-5-(2-(2-(2-methoxyethoxy)ethoxy)ethoxy)-phenyl)amino)pyridin-4-yl)oxy)naphthalen-1-yl)ureido)-N-(2-morpholinoethyl)benzamide] | 8.77 | 8.82 | 43.3% | – | – | – | – |
| COCCOCCOCCOc1cc(Nc2cc(Oc3ccc(NC(=O)Nc4cc(C(C)(C)C)cc([S+](C)[O-])c4OC)c4ccccc34)ccn2)cc(OC)c1 (centres unmarked) [Example 17, 1-(5-(tert-Butyl)-2-methoxy-3-(methylsulfinyl)phenyl)-3-(4-((2-((3-methoxy-5-(2-(2-(2-methoxyethoxy)ethoxy)ethoxy)phenyl)amino)pyridin-4-yl)oxy)naphthalen-1-yl)urea] | 9.05 | 8.70 | 41.3% | – | – | – | – |
| COc1c(CS(C)(=O)=O)cc(C(C)(C)C)cc1NC(=O)Nc1ccc(Oc2ccnc(Nc3ccccc3)c2)c2ccccc12 [Example 19, 1-(5-(tert-Butyl)-2-methoxy-3-((methylsulfonyl)methyl)phenyl)-3-(4-((2-(phenylamino)pyridin-4-yl)oxy)naphthalen-1-yl)urea] | 8.21 | 8.07 | 36.9% | – | – | – | – |
| COc1cc(Nc2nccc(Oc3ccc(NC(=O)Nc4cc(C(C)(C)C)cc(OCP(C)(C)=O)c4OC)c4ccccc34)n2)cc(OC)c1 [Example 20, 1-(5-(tert-Butyl)-3-((dimethylphosphoryl)methoxy)-2-methoxyphenyl)-3-(4-((2-((3,5-dimethoxyphenyl)amino)pyrimidin-4-yl)oxy)naphthalen-1-yl)urea] | 8.60 | 8.48 | 55% | – | – | – | – |
| COc1cc(Nc2cc(Oc3ccc(NC(=O)Nc4cc(C(C)(C)C)cc([S+](C)[O-])c4OC)c4ccccc34)ccn2)cc(OC)c1 (centres unmarked) [Example 40, 1-(5-(tert-Butyl)-2-methoxy-3-(methylsulfinyl)phenyl)-3-(4-((2-((3,5-dimethoxyphenyl)amino)pyridin-4-yl)oxy)naphthalen-1-yl)urea] | 8.57 | 8.52 | 44.3% | – | – | – | – |
| COc1cccc(Nc2cc(Oc3ccc(NC(=O)Nc4cc(C(C)(C)C)cc([S+](C)[O-])c4OC)c4ccccc34)ccn2)c1 (centres unmarked) [Example 41, 1-(5-(tert-Butyl)-2-methoxy-3-(methylsulfinyl)phenyl)-3-(4-((2-((3-methoxyphenyl)amino)pyridin-4-yl)oxy)naphthalen-1-yl)urea] | 8.54 | 8.66 | 36% | – | – | – | – |
| COc1cccc(Nc2cc(Oc3ccc(NC(=O)Nc4cc(C(C)(C)C)cc(CNC(C)=O)c4OC)c4ccccc34)ccn2)c1 [Example 43, N-(5-(tert-Butyl)-2-methoxy-3-(3-(4-((2-((3-methoxyphenyl)amino)pyridin-4-yl)oxy)naphthalen-1-yl)ureido)benzyl)acetamide] | 8.85 | 8.43 | 62.1% | – | – | – | – |
| COc1cc(Nc2cc(Oc3ccc(NC(=O)Nc4cc(C(C)(C)C)cc(CNC(C)=O)c4OC)c4ccccc34)ccn2)cc(OC)c1 [Example 44, N-(5-(tert-Butyl)-3-(3-(4-((2-((3,5-dimethoxyphenyl)amino)pyridin-4-yl)oxy)naphthalen-1-yl)ureido)-2-methoxybenzyl)acetamide] | 8.89 | 8.28 | 42.8% | – | – | – | – |
| COCCOCCOCCNC(=O)c1cc(Nc2cc(Oc3ccc(NC(=O)Nc4cc(C(C)(C)C)cc(CNC(=O)CN(C)C)c4OC)c4ccccc34)ccn2)cc(OC)c1 [Example 77, 3-((4-((4-(3-(5-(tert-Butyl)-3-((2-(dimethylamino)acetamido)methyl)-2-methoxyphenyl)ureido)naphthalen-1-yl)oxy)pyridin-2-yl)amino)-5-methoxy-N-(2-(2-(2-methoxyethoxy)ethoxy)ethyl)benzamide] | 9.05 | – | 58.7% | – | – | – | – |
